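Results reflect a 48-hour exposure of cells in 96-well plates to compound at five concentrations. TGI is the concentration that stops growth completely.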
Assays:
Assay in all cases: NCI-60 cell line screen, 48 h
A549 NSCLC = system: A549 NSCLC
DU-145 prostate = system: DU-145 prostate
HCT-116 colon = system: HCT-116 colon
HS 578T breast = system: HS 578T breast
KM12 colon = system: KM12 colon
NCI-H460 lung = system: NCI-H460 lung
NCI-H522 lung = system: NCI-H522 lung
NCI/ADR-RES ovarian = system: NCI/ADR-RES ovarian
SNB-75 CNS = system: SNB-75 CNS
T-47D breast = system: T-47D breast

Compound	TGI (A549 NSCLC)	TGI (DU-145 prostate)	TGI (HCT-116 colon)	TGI (HS 578T breast)	TGI (KM12 colon)	TGI (NCI-H460 lung)	TGI (NCI-H522 lung)	TGI (NCI/ADR-RES ovarian)	TGI (SNB-75 CNS)	TGI (T-47D breast)
Oc1ccc(C(O)C2CCCCN2)cc1O (stereo not given)	> 100 µM	> 100 µM	> 100 µM	> 100 µM	> 100 µM	> 100 µM	> 100 µM	> 100 µM	> 100 µM	54.3 µM
NC(=O)[C@H](Cc1ccc(O)cc1)Nc1c(O)c2c(c(O)c1Cl)C(=O)C=CC2=O	> 10 µM	> 10 µM	3.27 µM	> 9.16 µM	> 6.81 µM	> 10 µM	4.01 µM	> 7.25 µM	> 10 µM	5.27 µM
COc1ccc(CCNC(=O)Cc2ccccc2CO)cc1OC	> 100 µM	> 100 µM	> 100 µM	> 100 µM	> 100 µM	> 100 µM	> 100 µM	> 100 µM	> 100 µM	> 100 µM
CC(C)(CO[C@H]1C[C@H]2CC[C@@]1(C)C2(C)C)[N+](=O)[O-]	> 100 µM	49.2 µM	29.1 µM	55.9 µM	32.4 µM	38.5 µM	40.5 µM	90.3 µM	45.1 µM	45.6 µM
ClC1=NN=C(c2c[nH]c3ccccc23)CC1NCc1ccccc1 (stereo not given)	> 100 µM	> 100 µM	> 100 µM	> 100 µM	> 100 µM	> 100 µM	> 100 µM	> 100 µM	> 100 µM	> 100 µM
Cc1c(C)c2c(c(N)c1C#N)C(=O)N(N)C2=O	> 100 µM	> 100 µM	> 100 µM	> 100 µM	> 100 µM	> 100 µM	> 100 µM	> 100 µM	> 100 µM	> 100 µM
Cn1c(=O)c2c(nc3[nH]c(=O)c(Br)cn32)n(C)c1=O	> 100 µM	> 100 µM	> 100 µM	> 100 µM	> 100 µM	> 100 µM	> 100 µM	> 100 µM	> 100 µM	> 100 µM
O=C1[C@@H]2[C@@H](CN3CN(c4ccccc4)N=C(c4ccccc4)[C@@]23c2ccccc2)C(=O)N1c1ccccc1	19.7 µM	24.7 µM	31.8 µM	> 65.8 µM	> 75.5 µM	50.4 µM	1.13 µM	49.2 µM	34.9 µM	8.04 µM
CCc1nc(N)c2nc(-c3cccs3)oc2n1	> 100 µM	> 100 µM	> 100 µM	> 100 µM	> 100 µM	> 100 µM	> 100 µM	> 100 µM	> 100 µM	> 100 µM
